Our source for the TGI and GI50 values is PubChem BioAssay (NCI).

Some test systems named below: 786-0 renal; A498 renal; DU-145 prostate; HCT-116 colon; HCT-15 colon; NCI/ADR-RES ovarian; OVCAR-4 ovarian; SK-MEL-28 melanoma; SW-620 colon; T-47D breast.
Holding throughout (experiment): NCI tumour cell line growth inhibition, 48 h

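Following 48 hours of exposure in 96-well plates, responses at five concentrations were used to interpolate endpoints linearly. GI50 is the concentration that inhibits growth by half. TGI is the concentration that stops growth completely.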

Consider `Cc1ccc(C(=O)OC[C@H]2CC[C@@H](n3cc(N(C)C4CCCCC4)c(=O)[nH]c3=O)O2)cc1`, for which the TGI is above 100 µM in the assay on 786-0 renal; 46.8 µM with A498 renal; above 100 µM with DU-145 prostate; 32.4 µM in the assay on HCT-116 colon; 93 µM in the assay on HCT-15 colon; 56.7 µM in the assay on NCI/ADR-RES ovarian. The TGI was 68.4 µM in the assay on OVCAR-4 ovarian, above 100 µM with SK-MEL-28 melanoma and above 100 µM with SW-620 colon.

In the case of `CN(C)C(=S)N/N=C\C=N/NC(=S)N(C)C`, the TGI with 786-0 renal was above 100 µM; in the assay on A498 renal, 34.5 µM; with DU-145 prostate it was above 40.7 µM; in the assay on HCT-116 colon, above 100 µM; in the assay on HCT-15 colon, above 100 µM; with OVCAR-4 ovarian it was above 100 µM. The TGI in the assay with SK-MEL-28 melanoma, in the assay on SW-620 colon and in the assay on T-47D breast was above 100 µM throughout.

Consider `Cc1ccc(C(=O)N(C2CCCCC2)C2CCCCC2)cc1N=NN(C)C`, for which the TGI worked out at 28.7 µM in the assay on 786-0 renal; 27.8 µM with HCT-116 colon; 27.1 µM in the assay with HCT-15 colon; 47.8 µM in the assay with NCI/ADR-RES ovarian; 24 µM with OVCAR-4 ovarian; 17.9 µM in the assay on SK-MEL-28 melanoma. The TGI in the assay on SW-620 colon stood at 24.5 µM; in the assay on T-47D breast, 38.7 µM.

Regarding `CC(=O)OC[C@H]1O[C@@H](O[C@H]2[C@H](OC(C)=O)C=CO[C@@H]2COC(C)=O)C(OC(C)=O)[C@H]2OC(C)(C)O[C@H]21` (stereo not given in full), the TGI in the assay on 786-0 renal, with HCT-116 colon, with HCT-15 colon, with NCI/ADR-RES ovarian, in the assay with OVCAR-4 ovarian and in the assay on SK-MEL-28 melanoma was above 100 µM each time. The TGI with SW-620 colon and in the assay on T-47D breast was above 100 µM throughout.

On to `CCOC(=O)/C(=C\NCC(O)c1ccccc1)c1nc2ccccc2[nH]1` (stereo not given), for which the TGI in the assay on 786-0 renal was above 100 µM; with A498 renal it was 64.1 µM; in the assay with DU-145 prostate it was above 100 µM; in the assay on HCT-116 colon, 86.3 µM; with HCT-15 colon it was 74.3 µM; with NCI/ADR-RES ovarian, 67.9 µM. Further, the TGI with OVCAR-4 ovarian was 75.5 µM; in the assay with SK-MEL-28 melanoma it was 39.6 µM; with SW-620 colon, above 100 µM.

On to `OC(C1CCC=NN1C(O)(C(F)(F)F)C(F)(F)F)(C(F)(F)F)C(F)(F)F` (stereo not given), for which the TGI in the assay with 786-0 renal, with A498 renal, in the assay with DU-145 prostate, in the assay on HCT-116 colon, in the assay on HCT-15 colon and in the assay with NCI/ADR-RES ovarian was above 10 µM each time. Besides, the TGI in the assay with OVCAR-4 ovarian, in the assay with SK-MEL-28 melanoma and with T-47D breast was above 10 µM each time.

With `CCNC(=O)Nc1cccc(C)n1`, the TGI in the assay with 786-0 renal, with A498 renal, in the assay on DU-145 prostate, in the assay with HCT-116 colon, with OVCAR-4 ovarian and in the assay on SK-MEL-28 melanoma was above 100 µM throughout. Also, the TGI in the assay on SW-620 colon and in the assay on T-47D breast was above 100 µM each time.

As for `Cc1ccc([N+](=O)[O-])cc1S(=O)(=O)Nc1ccc(C2=NN(c3ccc([N+](=O)[O-])cc3[N+](=O)[O-])C(c3ccccc3)C2)cc1` (stereo not given), the TGI in the assay on 786-0 renal is 30.3 µM; in the assay with DU-145 prostate, 38.9 µM; with HCT-116 colon it was 27.4 µM; in the assay on HCT-15 colon it was 36.8 µM; in the assay with NCI/ADR-RES ovarian, 49.4 µM; in the assay with OVCAR-4 ovarian, 73.7 µM. Moreover, the TGI with SK-MEL-28 melanoma, in the assay on SW-620 colon and in the assay with T-47D breast was above 100 µM in each case.

As for `COC(=O)CCCc1ccc2c(c1)CC1(C2)Cc2cc3c(cc2C1)CCCC3`, the TGI in the assay with 786-0 renal is above 100 µM; with A498 renal, above 100 µM; with HCT-116 colon it was 15.9 µM; in the assay with HCT-15 colon, 89.3 µM; with NCI/ADR-RES ovarian it was above 100 µM; in the assay with OVCAR-4 ovarian it was above 100 µM. The compound also showed a TGI in the assay on T-47D breast above 100 µM.

In the case of `COc1cc(OC)c2c(O)cc(CC(C)O)cc2c1` (stereo not given), the TGI with 786-0 renal, in the assay with A498 renal, in the assay with HCT-116 colon, in the assay on HCT-15 colon, with OVCAR-4 ovarian and in the assay on SK-MEL-28 melanoma was above 100 µM throughout. In the assay with SW-620 colon, this compound came in with a TGI above 100 µM.

For the compound `CC1=NOC2(C1)/C(=N/O)CCC/C2=N\O` (stereo not given), the TGI with 786-0 renal, in the assay on HCT-116 colon, in the assay on HCT-15 colon, in the assay with NCI/ADR-RES ovarian, with OVCAR-4 ovarian and in the assay on SK-MEL-28 melanoma was above 100 µM each time. Further, the TGI with SW-620 colon and with T-47D breast was above 100 µM throughout.

For `CCCCOC(=O)C(=O)C(CCC(=O)c1ccc(C)cc1)C(=O)C=C(C)C` (stereo not given), the TGI in the assay with 786-0 renal, in the assay with A498 renal, in the assay with HCT-116 colon, in the assay on HCT-15 colon, in the assay with NCI/ADR-RES ovarian and with OVCAR-4 ovarian was above 100 µM each time. Further, the TGI with SK-MEL-28 melanoma, in the assay with SW-620 colon and in the assay on T-47D breast was above 100 µM each time.

As to `COC1=CC(=O)c2ccccc2C1(CCC=C(C)C)C1=NC(C)(C)CO1` (stereo not given), the TGI in the assay with 786-0 renal, in the assay with HCT-116 colon, in the assay on HCT-15 colon, in the assay on OVCAR-4 ovarian, in the assay with SK-MEL-28 melanoma and with SW-620 colon was above 100 µM in each case.

Turning to `O=C(CSc1nc2ccccc2[nH]1)Nc1ccc(-c2nc3ccccc3s2)c(Cl)c1`, the GI50 with A498 renal was 2.22 µM; with HCT-15 colon it was 23.8 µM; in the assay on NCI/ADR-RES ovarian, 4.41 µM; in the assay with OVCAR-4 ovarian it was 2.56 µM; with SK-MEL-28 melanoma, 2.73 µM; with SW-620 colon, 4.78 µM. The GI50 in the assay with T-47D breast was 1.71 µM. Moreover, the TGI is 52.7 µM in the assay on A498 renal; above 100 µM in the assay with HCT-15 colon; above 100 µM in the assay on NCI/ADR-RES ovarian; above 100 µM with OVCAR-4 ovarian; 7.59 µM in the assay with SK-MEL-28 melanoma; above 100 µM in the assay on SW-620 colon. In the assay with T-47D breast, this compound showed a TGI of 6.05 µM.
